This assay deals with YAP-TEAD interaction. Description: SK-HEP-1 reporter assay (8x TEAD responsive elements driving NanoLuc luciferase). Type of assay: cell-based. Particulars: Homo sapiens, SK-HEP1, SK-HEP-1 cells, 24 hour incubation. As for the experimental part: To identify inhibitors of YAP-TEAD interaction, 8× TEAD responsive elements driving the NanoLuc® luciferase gene were stably integrated into SK-HEP-1 cells (ECACC #: 91091816).
For the assay, cells were treated in duplicates with the test compounds in a 10-point dose, with the top concentration starting at 30 μM (final concentration in assay). After a 24 hour incubation at 37° C., 95% rH, and 5% CO2, a luciferase substrate/lysis reagent mix (NanoGlo™, Promega) was added to the cells, allowing the quantification of cellular luciferase activity.
Cell Media: The cells were cultured in the following media: MEM, +10% FBS, +1× GlutaMAX, +1 mM Sodium-Pyruvate, +100 μM Non-essential amino acids, +0.1 mg/ml Hygromycin. The media used for the assay was: MEM (w/o Phenol Red), +10% FBS, +1× GlutaMAX, +1 mM Sodium-Pyruvate, +100 μM Non-essential amino acids, +0.5% Pen/Strep
Reagents: The reagents used are listed below:
Cell culture: The cells were examined using an inverted microscope to check for health and cell density. To dissociate adherent cells, the monolayer of cells was washed once with pre-warmed PBS. After removing the PBS, 3 ml pre-warmed Accutase® was added to a F75 flask, dispersed evenly and the flask was allowed to sit in incubator for ˜4-5 minutes.
When a single cell suspension was obtained, 7 ml of prewarmed growth media was added and resuspended with the cells. The cell suspension was transferred to a sterile 15 ml conical centrifuge tube, and spun for 5 min at 300×g, RT. The supernatant was discarded and the pellet was resuspended in 10 ml of pre-warmed growth media.
The total cell count was determined, and 20 μl of the desired cell number was added to each well of a 384 well plate using a Multidrop Combi. The plates were then incubated for 24 hours at 37° C., 95% rH, and 5% CO2.
Compound treatment: 24 hours after seeding, the cells were treated with compounds.
A 1:333 dilution of compounds, diluted in DMSO, was made to get a final concentration of 0.3% DMSO per well. To transfer the compounds to the assay plate, 120 nl was shot from Labcyte low dead volume plates to the cell plates containing 20 μl media/well with the ECHO 555 liquid handling system. After treatment, the cells were fed with 20 μl fresh pre-warmed assay media using a Multidrop combi.
The assay plates were then incubated for another 24 h at 37° C., 95% rH, and 5% CO2.
Luciferase readout: 24 h after treatment, the plates were taken out of the incubator and were allowed to equilibrate to RT. 30 μl of NanoGlo® reagent was added to the plates in the dark. Plates were shaken for 20 min on a Teleshake (˜1500 rpm) in the dark. The luminescence was then measured using an EnVision microplate reader. The IC50 values were generated using Genedata Screener®.
On the technique in general: Reporter assays use an easily measured gene product as a stand-in for the process of interest.

Where [1] appears, read: number, or n.d. (x) = not detectable below threshold x.

On to `Cn1cc2c3cc(C(=O)NC(CO)C4CCC4)sc3n(-c3ccc(C(F)(F)F)cc3)c2n1` (racemic) [Compound 57, N-(1-cyclobutyl-2-hydroxyethyl)-4-methyl-7-[4-(trifluoromethyl)phenyl]-9-thia-4,5,7-triazatricyclo[6.3.0.0^2,6]undeca-1(8),2,5,10-tetraene-10-carboxamide], for which, under setting [1], the 50% inhibitory concentration (IC50) was greater than 9.5 µM. On the same count and under the same terms, for `Cn1cc2c3cc(C(=O)N[C@@H](CO)C4CCC4)sc3n(-c3ccc(C(F)(F)F)cc3)c2n1` (single isomer, unassigned) [Compound 55] the value was greater than 9.5 µM; for `Cn1cc2c3cc(C(=O)N[C@H](CO)C4CCC4)sc3n(-c3ccc(C(F)(F)F)cc3)c2n1` (single isomer, unassigned) [Compound 56], greater than 9.5 µM.

With `COCC[C@H](CO)NC(=O)c1cc2c3cn(C)nc3n(-c3ccc(C(F)(F)F)cc3)c2s1` (single isomer, unassigned) [Compound 58], the IC50 (group symbols) was greater than 10 µM. Molecule `Cn1cc2c3cc(C(=O)NC[C@@H](O)CO)sc3n(-c3ccc(C(F)(F)F)cc3)c2n1` (single isomer, unassigned) [Compound 128] displayed an IC50 under setting [1] greater than 30 µM. Turning to `Cn1cc2c3cc(C(=O)NC[C@H](O)CO)sc3n(-c3ccc(C(F)(F)F)cc3)c2n1` (single isomer, unassigned) [Compound 129], the concentration for half-maximal inhibition (IC50) under setting [1] is greater than 0.95 µM. Molecule `Cn1ccc([C@H](CO)NC(=O)c2cc3c4cn(C)nc4n(-c4ccc(C(F)(F)F)cc4)c3s2)n1` (single isomer, unassigned) [Compound 131] registered an IC50 under setting [1] greater than 0.095 µM. As to `Cn1nc2c3sc(C(=O)NC4CC4)cc3n(-c3ccc(C(F)(F)F)cc3)c2n1` [Compound 6, N-cyclopropyl-4-methyl-7-[4-(trifluoromethyl)phenyl]-11-thia-3,4,5,7-tetraazatricyclo[6.3.0.0^2,6]undeca-1(8),2,5,9-tetraene-10-carboxamide], the IC50 (group symbols) lay in the range of 0.1 to 10 µM.

For the molecule `Cn1nc2c3sc(C(=O)NCCO)cc3n(-c3ccc(C(F)(F)F)cc3)c2n1` [Compound 7, N-(2-hydroxyethyl)-4-methyl-7-[4-(trifluoromethyl)phenyl]-11-thia-3,4,5,7-tetraazatricyclo[6.3.0.0^2,6]undeca-1(8),2,5,9-tetraene-10-carboxamide], the IC50 (group symbols) was greater than 10 µM. On the same count and under the same terms, for `Cn1nc2c3sc(C(=O)N4CCC(O)C4)cc3n(-c3ccc(C(F)(F)F)cc3)c2n1` (centres unmarked) [Compound 9, 1-{4-methyl-7-[4-(trifluoromethyl)phenyl]-11-thia-3,4,5,7-tetraazatricyclo[6.3.0.0^2,6]undeca-1(8),2,5,9-tetraene-10-carbonyl}pyrrolidin-3-ol] the value was 0.1 to 10 µM. `Cn1cc2c3sc(C(=O)NCCO)cc3n(-c3ccc(C(F)(F)F)cc3)c2n1` [Compound 13, N-(2-hydroxyethyl)-10-methyl-7-[4-(trifluoromethyl)phenyl]-3-thia-7,9,10-triazatricyclo[6.3.0.0^2,6]undeca-1(11),2(6),4,8-tetraene-4-carboxamide] came in with a 50% inhibitory concentration (IC50) (group symbols) greater than 10 µM.

Regarding `Cn1cc2c3sc(C(=O)N[C@@H](CO)c4ccccn4)cc3n(-c3ccc(C(F)(F)F)cc3)c2n1` [Compound 14, N-[(1R)-2-hydroxy-1-(pyridin-2-yl)ethyl]-10-methyl-7-[4-(trifluoromethyl)phenyl]-3-thia-7,9,10-triazatricyclo[6.3.0.0^2,6]undeca-1(11),2(6),4,8-tetraene-4-carboxamide], the half-maximal inhibitory concentration (IC50) (group symbols) is greater than 10 µM. Under “group symbols”, `C[C@H](CO)NC(=O)c1cc2c(s1)c1cn(C)nc1n2-c1ccc(C(F)(F)F)cc1` [Compound 16, N-[(2R)-1-hydroxypropan-2-yl]-10-methyl-7-[4-(trifluoromethyl)phenyl]-3-thia-7,9,10-triazatricyclo[6.3.0.0^2,6]undeca-1(11),2(6),4,8-tetraene-4-carboxamide] registered a half-maximal inhibitory concentration (IC50) greater than 10 µM.

`CNC(=O)c1cc2c(s1)c1nc(C)sc1n2-c1ccc(C(F)(F)F)cc1` [Compound 23, N,4-dimethyl-7-[4-(trifluoromethyl)phenyl]-5,11-dithia-3,7-diazatricyclo[6.3.0.0^2,6]undeca-1(8),2(6),3,9-tetraene-10-carboxamide]: the IC50 (group symbols) was greater than 10 µM. Same read-out and setting: for `Cn1cc2c3sc(C(=O)O)cc3n(CCC(C)(C)C(F)(F)F)c2n1` [Compound 24, 10-methyl-7-(4,4,4-trifluoro-3,3-dimethylbutyl)-3-thia-7,9,10-triazatricyclo[6.3.0.0^2,6]undeca-1(11),2(6),4,8-tetraene-4-carboxylic acid] the value was 0.1 to 10 µM; for `CNC(=O)c1cc2c(s1)c1nc(C)sc1n2-c1ccc(OC(F)(F)F)cc1` [Compound 26, N,4-dimethyl-7-[4-(trifluoromethoxy)phenyl]-5,11-dithia-3,7-diazatricyclo[6.3.0.0^2,6]undeca-1(8),2(6),3,9-tetraene-10-carboxamide], 0.1 to 10 µM. For the setting “group symbols”, `Cn1nc2c3sc(C(N)=O)cc3n(-c3ccc(C(F)(F)F)cc3)c2n1` [Compound 28, 4-methyl-7-[4-(trifluoromethyl)phenyl]-11-thia-3,4,5,7-tetraazatricyclo[6.3.0.0^2,6]undeca-1(8),2,5,9-tetraene-10-carboxamide] returned an IC50 greater than 10 µM.

`CNC(=O)c1cc2c(s1)c1nn(C)nc1n2-c1ccc(OC(F)(F)F)cc1` [Compound 29, N,4-dimethyl-7-[4-(trifluoromethoxy)phenyl]-11-thia-3,4,5,7-tetraazatricyclo[6.3.0.0^2,6]undeca-1(8),2,5,9-tetraene-10-carboxamide]: for the setting “group symbols”, the IC50 was greater than 10 µM. Same read-out and setting: the figure for `Cn1nc2c3sc(C(=O)NC4CC4)cc3n(-c3ccc(OC(F)(F)F)cc3)c2n1` [Compound 30, N-cyclopropyl-4-methyl-7-[4-(trifluoromethoxy)phenyl]-11-thia-3,4,5,7-tetraazatricyclo[6.3.0.0^2,6]deca-1(8),2,5,9-tetraene-10-carboxamide] is 0.1 to 10 µM; for `Cn1nc2c3sc(C(N)=O)cc3n(-c3ccc(OC(F)(F)F)cc3)c2n1` [Compound 38, 4-methyl-7-[4-(trifluoromethoxy)phenyl]-11-thia-3,4,5,7-tetraazatricyclo[6.3.0.0^2,6]undeca-1(8),2,5,9-tetraene-10-carboxamide] it is 0.1 to 10 µM; for `CNC(=O)c1cc2c(s1)c1cn(C)nc1n2C[C@H]1C[C@@H](C(F)(F)F)C1` [Compound 39, N,10-dimethyl-7-{[(1s,3s)-3-(trifluoromethyl)cyclobutyl]methyl}-3-thia-7,9,10-triazatricyclo[6.3.0.0^2,6]undeca-1(11),2(6),4,8-tetraene-4-carboxamide] it is 0.1 to 10 µM. In turn, `Cn1cc2c3cc(C(=O)O)sc3n(-c3ccc(C(F)(F)F)cn3)c2n1` [Compound 53, 4-methyl-7-[5-(trifluoromethyl)pyridin-2-yl]-9-thia-4,5,7-triazatricyclo[6.3.0.0^2,6]undeca-1(8),2,5,10-tetraene-10-carboxylic acid] registered an IC50 (group symbols) of 0.001 to 0.01 µM. Same read-out and setting: for `Cn1cc2c3cc(C(=O)O)sc3n(-c3ccc(OC(F)(F)F)cc3)c2n1` [Compound 54, 4-methyl-7-[4-(trifluoromethoxy)phenyl]-9-thia-4,5,7-triazatricyclo[6.3.0.0^2,6]undeca-1(8),2,5,10-tetraene-10-carboxylic acid] the value was 0.001 to 0.01 µM; for `Cn1cc2c3cc(C(=O)NCC4CNC4)sc3n(-c3ccc(C(F)(F)F)cc3)c2n1` [Compound 60, N-[(azetidin-3-yl)methyl]-4-methyl-7-[4-(trifluoromethyl)phenyl]-9-thia-4,5,7-triazatricyclo[6.3.0.0^2,6]undeca-1(8),2,5,10-tetraene-10-carboxamide], 0.1 to 10 µM. Consider `CC(=O)NCCOCCOCCNC(=O)c1cc2c3cn(C)nc3n(-c3ccc(C(F)(F)F)cc3)c2s1` [Compound 73, N-(2-{2-[2-({4-methyl-7-[4-(trifluoromethyl)phenyl]-9-thia-4,5,7-triazatricyclo[6.3.0.0^2,6]undeca-1(8),2,5,10-tetraen-10-yl}formamido)ethoxy]ethoxy}ethyl)acetamide], for which the IC50 under setting [1] was greater than 3 µM. Where the note is “group symbols”, `Cn1cc2c3cc(C(=O)O)sc3n(-c3ccc(C(F)(F)F)nc3)c2n1` [Compound 81, 4-methyl-7-[6-(trifluoromethyl)pyridin-3-yl]-9-thia-4,5,7-triazatricyclo[6.3.0.0^2,6]undeca-1(8),2,5,10-tetraene-10-carboxylic acid] displayed a half-inhibitory concentration (IC50) of 0.01 to 0.1 µM.

In general, IC50 refers to the concentration that inhibits the measured activity by half. Read a high IC50 as a need for much substance.

Values taken from patent publication US20260159525A1, “TRICYCLIC HETEROCYCLES” (Merck Patent GmbH, priority 2021, published 2026).
